Measurements reported in ChEMBL document CHEMBL4376838, “Discovery of Novel Celastrol Derivatives as Hsp90-Cdc37 Interaction Disruptors with Antitumor Activity” (J Med Chem, 2019).

system: A549; experiment: Antiproliferative activity against human A549 cells assessed as inhibition of cell growth at 1.5 uM incubated for 48 hrs by MTT assay relative to control; format: functional; settings: A549, 48 h, read-out: GI

| Structure (SMILES) | inhibition of growth at 1.5 µM |
| --- | --- |
| CC1=C(O)C(=O)C=C2C1=CC=C1[C@@]2(C)CC[C@@]2(C)[C@@H]3C[C@](C)(C(=O)OCCCOC(=O)/C=C/c4ccccc4)CC[C@]3(C)CC[C@]12C | 33.2% |
| CC1=C(O)C(=O)C=C2C1=CC=C1[C@@]2(C)CC[C@@]2(C)[C@@H]3C[C@](C)(C(=O)OCCCCOC(=O)/C(C#N)=C/c4ccccc4)CC[C@]3(C)CC[C@]12C | 16.2% |
| CC1=C(O)C(=O)C=C2C1=CC=C1[C@@]2(C)CC[C@@]2(C)[C@@H]3C[C@](C)(C(=O)OCCCCOC(=O)/C=C/c4ccccc4)CC[C@]3(C)CC[C@]12C | 13.3% |
| CC1=C(O)C(=O)C=C2C1=CC=C1[C@@]2(C)CC[C@@]2(C)[C@@H]3C[C@](C)(C(=O)OCCCCOC(=O)/C=C(\C#N)c4ccc(F)cc4)CC[C@]3(C)CC[C@]12C | 32.1% |
| CC1=C(O)C(=O)C=C2C1=CC=C1[C@@]2(C)CC[C@@]2(C)[C@@H]3C[C@](C)(C(=O)OCCOC(=O)/C=C/c4ccccc4)CC[C@]3(C)CC[C@]12C | 23% |
| COc1ccc(/C=C(\C#N)C(=O)OCCCCOC(=O)[C@]2(C)CC[C@]3(C)CC[C@]4(C)C5=CC=C6C(=CC(=O)C(O)=C6C)[C@]5(C)CC[C@@]4(C)[C@@H]3C2)cc1 | 3.07% |
| COc1ccc(/C=C/C(=O)OCCOC(=O)[C@]2(C)CC[C@]3(C)CC[C@]4(C)C5=CC=C6C(=CC(=O)C(O)=C6C)[C@]5(C)CC[C@@]4(C)[C@@H]3C2)cc1 | 35.3% |
| CC1=C(O)C(=O)C=C2C1=CC=C1[C@@]2(C)CC[C@@]2(C)[C@@H]3C[C@](C)(C(=O)OCCCCOC(=O)/C=C/c4ccc(F)cc4)CC[C@]3(C)CC[C@]12C | 14.7% |
| CC1=C(O)C(=O)C=C2C1=CC=C1[C@@]2(C)CC[C@@]2(C)[C@@H]3C[C@](C)(C(=O)OCCCOC(=O)/C=C/c4ccc(F)cc4)CC[C@]3(C)CC[C@]12C | 37.6% |
| CC1=C(O)C(=O)C=C2C1=CC=C1[C@@]2(C)CC[C@@]2(C)[C@@H]3C[C@](C)(C(=O)OCCOC(=O)/C=C/c4ccc(C)cc4)CC[C@]3(C)CC[C@]12C | 28.6% |
| CC1=C(O)C(=O)C=C2C1=CC=C1[C@@]2(C)CC[C@@]2(C)[C@@H]3C[C@](C)(C(=O)OCCCOC(=O)/C=C(\C#N)c4ccc(C(F)(F)F)cc4)CC[C@]3(C)CC[C@]12C | 24.5% |
| CC1=C(O)C(=O)C=C2C1=CC=C1[C@@]2(C)CC[C@@]2(C)[C@@H]3C[C@](C)(C(=O)OCCOC(=O)/C(C#N)=C/c4ccc(C)cc4)CC[C@]3(C)CC[C@]12C | 29.9% |
| CC1=C(O)C(=O)C=C2C1=CC=C1[C@@]2(C)CC[C@@]2(C)[C@@H]3C[C@](C)(C(=O)OCCCCOC(=O)/C=C/c4ccc(C)cc4)CC[C@]3(C)CC[C@]12C | 19.9% |
| CC1=C(O)C(=O)C=C2C1=CC=C1[C@@]2(C)CC[C@@]2(C)[C@@H]3C[C@](C)(C(=O)OCCCCOC(=O)/C=C(\C#N)c4ccc(C)cc4)CC[C@]3(C)CC[C@]12C | 9.74% |
| CC1=C(O)C(=O)C=C2C1=CC=C1[C@@]2(C)CC[C@@]2(C)[C@@H]3C[C@](C)(C(=O)OCCCOC(=O)/C=C/c4ccc(C)cc4)CC[C@]3(C)CC[C@]12C | 29.1% |
| CC1=C(O)C(=O)C=C2C1=CC=C1[C@@]2(C)CC[C@@]2(C)[C@@H]3C[C@](C)(C(=O)OCCCOC(=O)/C=C/c4ccc(C(F)(F)F)cc4)CC[C@]3(C)CC[C@]12C | 37.6% |
| COc1ccc(/C=C/C(=O)OCCCOC(=O)[C@]2(C)CC[C@]3(C)CC[C@]4(C)C5=CC=C6C(=CC(=O)C(O)=C6C)[C@]5(C)CC[C@@]4(C)[C@@H]3C2)cc1 | 34.1% |
| CC1=C(O)C(=O)C=C2C1=CC=C1[C@@]2(C)CC[C@@]2(C)[C@@H]3C[C@](C)(C(=O)OCCOC(=O)/C(C#N)=C/c4ccc(C(F)(F)F)cc4)CC[C@]3(C)CC[C@]12C | 16% |
| CC1=C(O)C(=O)C=C2C1=CC=C1[C@@]2(C)CC[C@@]2(C)[C@@H]3C[C@](C)(C(=O)OCCOC(=O)/C=C/c4ccc(C(F)(F)F)cc4)CC[C@]3(C)CC[C@]12C | 26% |
